Experimental data: the kinase profiling compilation of Christmann-Franck et al. (2016)

Assays:
Experiment in all cases: radiometric filter-binding kinase assay, Kinase HotSpot
Details in all cases: compound 0.5 µM; ATP 10 µM
ACVR1 (human) = ACVR1 (human) (UniProt Q04771)
BLK (human) = BLK (human) (UniProt P51451)
CAMK1D (human) = CAMK1D (human) (UniProt Q8IU85)
CDK1 CCNB1 (human) = CDK1 CCNB1 (human) (UniProt P06493+P14635)
CDK6 CCND3 (human) = CDK6 CCND3 (human) (UniProt P30281+Q00534)
CHUK (human) = CHUK (human) (UniProt O15111)
ERBB4 (human) = ERBB4 (human) (UniProt Q15303)
FGFR4 (human) = FGFR4 (human) (UniProt P22455)
FLT3 (human) = FLT3 (human) (UniProt P36888)
GRK4 (human) = GRK4 (human) (UniProt P32298)
HIPK1 (human) = HIPK1 (human) (UniProt Q86Z02)
HIPK4 (human) = HIPK4 (human) (UniProt Q8NE63)
IGF1R (human) = IGF1R (human) (UniProt P08069)
JAK3 JH1 JH2 (human) = JAK3 JH1 JH2 (human) (UniProt P52333)
KIT (human) = KIT (human) (UniProt P10721)
MAP2K2 (human) = MAP2K2 (human) (UniProt P36507)
MAP3K10 (human) = MAP3K10 (human) (UniProt Q02779)
MAP3K7 TAB1 (human) = MAP3K7 TAB1 (human) (UniProt O43318+Q15750)
MAPK14 (human) = MAPK14 (human) (UniProt Q16539)
MAPKAPK3 (human) = MAPKAPK3 (human) (UniProt Q16644)
MST1R (human) = MST1R (human) (UniProt Q04912)
MUSK (human) = MUSK (human) (UniProt O15146)
MYLK (human) = MYLK (human) (UniProt Q15746)
MYLK2 (human) = MYLK2 (human) (UniProt Q9H1R3)
NEK1 (human) = NEK1 (human) (UniProt Q96PY6)
NTRK1 (human) = NTRK1 (human) (UniProt P04629)
PAK2 (human) = PAK2 (human) (UniProt Q13177)
PAK3 (human) = PAK3 (human) (UniProt O75914)
PDGFRB (human) = PDGFRB (human) (UniProt P09619)
PLK3 (human) = PLK3 (human) (UniProt Q9H4B4)
PRKCG (human) = PRKCG (human) (UniProt P05129)
RET (human) = RET (human) (UniProt P07949)
RPS6KA2 KD1 KD2 (human) = RPS6KA2 KD1 KD2 (human) (UniProt Q15349)
RPS6KA6 KD1 KD2 (human) = RPS6KA6 KD1 KD2 (human) (UniProt Q9UK32)
TAOK3 (human) = TAOK3 (human) (UniProt Q9H2K8)
TEK (human) = TEK (human) (UniProt Q02763)
TNK2 (human) = TNK2 (human) (UniProt Q07912)
TSSK1B (human) = TSSK1B (human) (UniProt Q9BXA7)
TSSK2 (human) = TSSK2 (human) (UniProt Q96PF2)
[1] = molecular target: TYK2 JH1 catalytic (human) (UniProt P29597)
VRK1 (human) = VRK1 (human) (UniProt Q99986)
Sequence of VRK1 (human) (Q99986 whole entry, looked up): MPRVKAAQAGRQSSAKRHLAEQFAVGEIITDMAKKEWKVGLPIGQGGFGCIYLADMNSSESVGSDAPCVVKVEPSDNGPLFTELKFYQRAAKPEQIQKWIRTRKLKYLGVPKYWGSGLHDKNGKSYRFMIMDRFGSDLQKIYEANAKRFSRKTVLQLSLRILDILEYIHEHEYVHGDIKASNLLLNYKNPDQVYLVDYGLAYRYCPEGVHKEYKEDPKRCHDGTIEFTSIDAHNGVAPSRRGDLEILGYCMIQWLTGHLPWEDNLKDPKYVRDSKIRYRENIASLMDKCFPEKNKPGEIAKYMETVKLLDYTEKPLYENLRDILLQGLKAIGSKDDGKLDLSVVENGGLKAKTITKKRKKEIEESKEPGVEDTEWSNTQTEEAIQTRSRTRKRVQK

Sequence of NEK1 (human) (Q96PY6 whole entry, looked up): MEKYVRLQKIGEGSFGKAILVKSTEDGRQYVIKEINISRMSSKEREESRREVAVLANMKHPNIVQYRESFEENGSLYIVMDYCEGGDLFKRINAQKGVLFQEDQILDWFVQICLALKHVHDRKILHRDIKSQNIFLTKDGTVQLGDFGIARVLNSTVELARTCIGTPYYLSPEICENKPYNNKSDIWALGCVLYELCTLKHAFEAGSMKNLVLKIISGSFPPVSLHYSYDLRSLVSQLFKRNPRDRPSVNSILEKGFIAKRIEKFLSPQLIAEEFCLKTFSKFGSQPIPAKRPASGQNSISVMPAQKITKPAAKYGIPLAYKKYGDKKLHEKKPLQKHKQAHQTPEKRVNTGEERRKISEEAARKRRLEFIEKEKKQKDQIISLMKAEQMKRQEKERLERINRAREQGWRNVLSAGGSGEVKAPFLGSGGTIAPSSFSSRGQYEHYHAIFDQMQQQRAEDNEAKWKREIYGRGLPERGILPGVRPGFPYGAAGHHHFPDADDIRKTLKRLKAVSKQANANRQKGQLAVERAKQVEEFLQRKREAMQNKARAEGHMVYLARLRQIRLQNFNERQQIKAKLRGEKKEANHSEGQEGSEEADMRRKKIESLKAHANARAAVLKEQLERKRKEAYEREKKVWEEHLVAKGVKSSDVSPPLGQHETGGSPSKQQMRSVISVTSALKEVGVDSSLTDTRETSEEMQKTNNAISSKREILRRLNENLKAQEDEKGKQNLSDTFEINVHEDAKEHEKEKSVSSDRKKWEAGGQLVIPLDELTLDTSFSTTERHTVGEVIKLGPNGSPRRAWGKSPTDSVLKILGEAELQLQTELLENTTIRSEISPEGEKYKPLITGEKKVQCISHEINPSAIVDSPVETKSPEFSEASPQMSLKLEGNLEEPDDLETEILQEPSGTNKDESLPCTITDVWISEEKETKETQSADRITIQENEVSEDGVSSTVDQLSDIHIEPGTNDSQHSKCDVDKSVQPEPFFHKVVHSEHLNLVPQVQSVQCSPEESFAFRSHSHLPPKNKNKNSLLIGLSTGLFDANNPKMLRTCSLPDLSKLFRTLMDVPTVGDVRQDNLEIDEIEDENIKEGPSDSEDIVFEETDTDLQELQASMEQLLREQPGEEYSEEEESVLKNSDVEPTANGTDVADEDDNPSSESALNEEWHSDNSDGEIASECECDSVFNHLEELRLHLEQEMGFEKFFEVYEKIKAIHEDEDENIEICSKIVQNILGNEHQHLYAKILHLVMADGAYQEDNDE
Sequence of MST1R (human) (Q04912 whole entry, looked up): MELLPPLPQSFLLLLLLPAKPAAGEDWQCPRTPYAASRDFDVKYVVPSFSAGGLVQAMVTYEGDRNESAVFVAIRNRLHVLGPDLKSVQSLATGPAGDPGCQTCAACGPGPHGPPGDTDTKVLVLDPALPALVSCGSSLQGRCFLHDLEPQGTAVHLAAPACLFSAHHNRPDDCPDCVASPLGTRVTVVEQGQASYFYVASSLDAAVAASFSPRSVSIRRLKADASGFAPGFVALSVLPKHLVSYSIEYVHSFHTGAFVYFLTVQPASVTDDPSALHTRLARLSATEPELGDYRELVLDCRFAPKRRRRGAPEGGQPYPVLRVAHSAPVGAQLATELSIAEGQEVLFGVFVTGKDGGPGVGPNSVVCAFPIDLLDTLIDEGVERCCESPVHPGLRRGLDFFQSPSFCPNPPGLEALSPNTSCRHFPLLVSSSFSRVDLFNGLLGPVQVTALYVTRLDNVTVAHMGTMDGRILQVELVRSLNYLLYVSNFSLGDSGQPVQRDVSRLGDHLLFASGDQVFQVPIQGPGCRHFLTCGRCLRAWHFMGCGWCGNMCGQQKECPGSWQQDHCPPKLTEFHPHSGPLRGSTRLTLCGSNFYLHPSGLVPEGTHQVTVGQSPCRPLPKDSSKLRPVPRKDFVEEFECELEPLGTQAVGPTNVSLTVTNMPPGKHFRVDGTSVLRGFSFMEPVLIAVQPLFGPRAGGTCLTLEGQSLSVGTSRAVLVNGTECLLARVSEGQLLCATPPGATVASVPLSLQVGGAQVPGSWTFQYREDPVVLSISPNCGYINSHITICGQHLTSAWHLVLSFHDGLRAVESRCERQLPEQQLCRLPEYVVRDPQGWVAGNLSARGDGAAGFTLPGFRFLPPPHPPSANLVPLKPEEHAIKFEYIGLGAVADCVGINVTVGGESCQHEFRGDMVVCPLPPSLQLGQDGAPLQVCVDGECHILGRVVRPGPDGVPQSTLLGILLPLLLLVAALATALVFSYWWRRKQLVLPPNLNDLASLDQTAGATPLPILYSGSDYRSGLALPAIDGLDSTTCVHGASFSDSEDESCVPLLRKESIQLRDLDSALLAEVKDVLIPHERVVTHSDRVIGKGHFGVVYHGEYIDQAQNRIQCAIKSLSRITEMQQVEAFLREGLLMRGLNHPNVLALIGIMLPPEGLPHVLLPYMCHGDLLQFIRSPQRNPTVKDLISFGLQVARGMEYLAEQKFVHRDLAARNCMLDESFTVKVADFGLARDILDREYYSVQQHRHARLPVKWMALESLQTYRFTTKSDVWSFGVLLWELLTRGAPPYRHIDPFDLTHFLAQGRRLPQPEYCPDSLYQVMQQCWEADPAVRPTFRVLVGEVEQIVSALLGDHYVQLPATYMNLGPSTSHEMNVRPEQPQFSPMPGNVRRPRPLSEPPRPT
Sequence of RET (human) (P07949 whole entry, looked up): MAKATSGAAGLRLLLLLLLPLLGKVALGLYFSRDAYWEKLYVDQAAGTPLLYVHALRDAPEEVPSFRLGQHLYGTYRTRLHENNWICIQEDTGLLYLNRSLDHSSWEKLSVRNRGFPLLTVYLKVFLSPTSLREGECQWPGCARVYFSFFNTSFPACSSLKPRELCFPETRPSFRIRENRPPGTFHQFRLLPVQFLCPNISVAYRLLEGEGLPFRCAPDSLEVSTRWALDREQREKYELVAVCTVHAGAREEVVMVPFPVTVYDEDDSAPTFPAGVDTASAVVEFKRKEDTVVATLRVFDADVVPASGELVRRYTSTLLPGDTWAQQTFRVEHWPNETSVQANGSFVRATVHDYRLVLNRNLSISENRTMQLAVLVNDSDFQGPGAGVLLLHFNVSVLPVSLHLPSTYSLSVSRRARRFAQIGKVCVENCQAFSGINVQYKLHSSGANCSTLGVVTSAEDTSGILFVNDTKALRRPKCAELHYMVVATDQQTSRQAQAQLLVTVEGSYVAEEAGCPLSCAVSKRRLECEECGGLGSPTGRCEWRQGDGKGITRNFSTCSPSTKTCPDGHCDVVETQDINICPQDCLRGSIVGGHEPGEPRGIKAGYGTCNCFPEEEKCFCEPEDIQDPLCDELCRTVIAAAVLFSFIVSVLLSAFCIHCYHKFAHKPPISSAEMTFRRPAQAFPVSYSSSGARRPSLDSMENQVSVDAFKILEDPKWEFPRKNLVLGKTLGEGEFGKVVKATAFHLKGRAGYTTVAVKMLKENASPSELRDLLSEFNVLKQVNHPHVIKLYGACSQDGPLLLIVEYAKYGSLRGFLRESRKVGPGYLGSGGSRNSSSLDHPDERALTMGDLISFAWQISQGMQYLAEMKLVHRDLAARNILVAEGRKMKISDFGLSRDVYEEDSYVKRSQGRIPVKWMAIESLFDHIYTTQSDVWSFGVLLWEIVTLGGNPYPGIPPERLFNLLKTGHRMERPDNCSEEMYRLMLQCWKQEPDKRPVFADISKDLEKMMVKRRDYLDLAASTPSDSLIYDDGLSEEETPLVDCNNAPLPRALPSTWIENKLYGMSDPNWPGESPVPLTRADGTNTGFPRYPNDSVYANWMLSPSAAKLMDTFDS
Sequence of MAP2K2 (human) (P36507 whole entry, looked up): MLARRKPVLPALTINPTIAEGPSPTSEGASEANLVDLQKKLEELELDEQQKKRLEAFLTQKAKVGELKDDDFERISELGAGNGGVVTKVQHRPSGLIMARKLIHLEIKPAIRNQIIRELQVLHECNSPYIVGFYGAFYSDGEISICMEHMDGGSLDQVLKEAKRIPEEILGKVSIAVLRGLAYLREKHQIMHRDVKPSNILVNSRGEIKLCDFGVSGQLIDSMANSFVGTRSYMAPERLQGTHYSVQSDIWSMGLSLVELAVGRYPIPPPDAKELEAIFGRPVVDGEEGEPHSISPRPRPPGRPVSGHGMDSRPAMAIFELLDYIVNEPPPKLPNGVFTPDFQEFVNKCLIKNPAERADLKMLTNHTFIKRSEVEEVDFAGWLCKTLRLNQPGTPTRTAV
Sequence of MAPK14 (human) (Q16539 whole entry, looked up): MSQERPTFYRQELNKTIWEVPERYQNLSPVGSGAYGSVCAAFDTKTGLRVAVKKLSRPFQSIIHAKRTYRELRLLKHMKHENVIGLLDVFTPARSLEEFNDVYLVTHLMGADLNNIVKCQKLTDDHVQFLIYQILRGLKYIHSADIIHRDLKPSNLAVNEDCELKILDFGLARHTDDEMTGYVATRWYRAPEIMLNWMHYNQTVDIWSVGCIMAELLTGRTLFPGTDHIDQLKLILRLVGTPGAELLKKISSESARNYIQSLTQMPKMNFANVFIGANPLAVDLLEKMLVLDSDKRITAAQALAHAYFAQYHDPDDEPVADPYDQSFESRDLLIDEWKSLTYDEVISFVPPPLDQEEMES

In the case of COc1ccc(C(=O)Nc2sc3c(c2C(N)=O)CCCC3)cc1OC, the residual activity (ACVR1 (human)) is reported as 159%, the residual activity (BLK (human)) is reported as 102% and the residual activity (CAMK1D (human)) is reported as 93.8%. The residual activity (CDK1 CCNB1 (human)) was 94.3%, the residual activity (CDK6 CCND3 (human)) was 94.9% and the residual activity (CHUK (human)) was 83.3%. The residual activity (ERBB4 (human)) was 97.2%, the residual activity (FGFR4 (human)) was 105% and the residual activity (FLT3 (human)) was 42%. It also gave a residual activity (GRK4 (human)) of 95.1%, a residual activity (HIPK1 (human)) of 90.2% and a residual activity (HIPK4 (human)) of 103%. It also gave a residual activity (IGF1R (human)) of 97.7%, a residual activity (JAK3 JH1 JH2 (human)) of 108% and a residual activity (KIT (human)) of 46.2%. The residual activity (MAP2K2 (human)) was 95.3%, the residual activity (MAP3K10 (human)) was 96.6% and the residual activity (MAP3K7 TAB1 (human)) was 101%. It also gave a residual activity (MAPK14 (human)) of 97.5%, a residual activity (MAPKAPK3 (human)) of 97.2% and a residual activity (MST1R (human)) of 105%. The residual activity (MUSK (human)) was 79.4%, the residual activity (MYLK (human)) was 41.2% and the residual activity (MYLK2 (human)) was 94.4%. It also gave a residual activity (NEK1 (human)) of 89.8%, a residual activity (NTRK1 (human)) of 104% and a residual activity (PAK2 (human)) of 99.1%. The residual activity (PAK3 (human)) was 96.2%, the residual activity (PDGFRB (human)) was 90.9% and the residual activity (PLK3 (human)) was 95%. The residual activity (PRKCG (human)) was 93%, the residual activity (RET (human)) was 102% and the residual activity (RPS6KA2 KD1 KD2 (human)) was 112%. It also gave a residual activity (RPS6KA6 KD1 KD2 (human)) of 98.5%, a residual activity (TAOK3 (human)) of 100% and a residual activity (TEK (human)) of 96.4%. It also gave a residual activity (TNK2 (human)) of 93.4%, a residual activity (TSSK1B (human)) of 115% and a residual activity (TSSK2 (human)) of 94.6%. The residual activity [1] was 117% and the residual activity (VRK1 (human)) was 95.3%.
CC(C)(C)c1cc(C=C(C#N)C#N)cc(Br)c1O was tested, and the residual activity (ACVR1 (human)) was 102%, the residual activity (BLK (human)) was 97.9% and the residual activity (CAMK1D (human)) was 111%. It also gave a residual activity (CDK1 CCNB1 (human)) of 72.6%, a residual activity (CDK6 CCND3 (human)) of 89.3% and a residual activity (CHUK (human)) of 89.7%. For the same compound, the residual activity (ERBB4 (human)) was 94%, the residual activity (FGFR4 (human)) was 98% and the residual activity (FLT3 (human)) was 102%. For the same compound, the residual activity (GRK4 (human)) was 101%, the residual activity (HIPK1 (human)) was 104% and the residual activity (HIPK4 (human)) was 103%. It also gave a residual activity (IGF1R (human)) of 96.6%, a residual activity (JAK3 JH1 JH2 (human)) of 110% and a residual activity (KIT (human)) of 97.9%. The residual activity (MAP2K2 (human)) was 85.8%, the residual activity (MAP3K10 (human)) was 100% and the residual activity (MAP3K7 TAB1 (human)) was 87.9%. It also gave a residual activity (MAPK14 (human)) of 98.3%, a residual activity (MAPKAPK3 (human)) of 103% and a residual activity (MST1R (human)) of 105%. For the same compound, the residual activity (MUSK (human)) was 103%, the residual activity (MYLK (human)) was 90.6% and the residual activity (MYLK2 (human)) was 99.3%. For the same compound, the residual activity (NEK1 (human)) was 97.7%, the residual activity (NTRK1 (human)) was 100% and the residual activity (PAK2 (human)) was 96.5%. It also gave a residual activity (PAK3 (human)) of 96.9%, a residual activity (PDGFRB (human)) of 104% and a residual activity (PLK3 (human)) of 94.6%. It also gave a residual activity (PRKCG (human)) of 90.4%, a residual activity (RET (human)) of 98.2% and a residual activity (RPS6KA2 KD1 KD2 (human)) of 98.9%. The residual activity (RPS6KA6 KD1 KD2 (human)) was 101%, the residual activity (TAOK3 (human)) was 122% and the residual activity (TEK (human)) was 97.9%. The residual activity (TNK2 (human)) was 93.1%, the residual activity (TSSK1B (human)) was 95.6% and the residual activity (TSSK2 (human)) was 96.6%. The residual activity [1] was 61.3% and the residual activity (VRK1 (human)) was 86.4%.
In the case of Ic1cccc(CSc2nnc(-c3ccncc3)o2)c1, the residual activity (ACVR1 (human)) is reported as 97.4%, the residual activity (BLK (human)) is reported as 103% and the residual activity (CAMK1D (human)) is reported as 101%. It also gave a residual activity (CDK1 CCNB1 (human)) of 92%, a residual activity (CDK6 CCND3 (human)) of 102% and a residual activity (CHUK (human)) of 96.5%. It also gave a residual activity (ERBB4 (human)) of 96.4%, a residual activity (FGFR4 (human)) of 97.2% and a residual activity (FLT3 (human)) of 102%. It also gave a residual activity (GRK4 (human)) of 99.9%, a residual activity (HIPK1 (human)) of 105% and a residual activity (HIPK4 (human)) of 98.8%. The residual activity (IGF1R (human)) was 99.1%, the residual activity (JAK3 JH1 JH2 (human)) was 106% and the residual activity (KIT (human)) was 99.8%. It also gave a residual activity (MAP2K2 (human)) of 102%, a residual activity (MAP3K10 (human)) of 102% and a residual activity (MAP3K7 TAB1 (human)) of 102%. The residual activity (MAPK14 (human)) was 99.3%, the residual activity (MAPKAPK3 (human)) was 109% and the residual activity (MST1R (human)) was 104%. It also gave a residual activity (MUSK (human)) of 94.1%, a residual activity (MYLK (human)) of 99.1% and a residual activity (MYLK2 (human)) of 101%. For the same compound, the residual activity (NEK1 (human)) was 95.5%, the residual activity (NTRK1 (human)) was 96% and the residual activity (PAK2 (human)) was 97.6%. The residual activity (PAK3 (human)) was 92.9%, the residual activity (PDGFRB (human)) was 97.7% and the residual activity (PLK3 (human)) was 96.1%. It also gave a residual activity (PRKCG (human)) of 98.7%, a residual activity (RET (human)) of 103% and a residual activity (RPS6KA2 KD1 KD2 (human)) of 101%. For the same compound, the residual activity (RPS6KA6 KD1 KD2 (human)) was 103%, the residual activity (TAOK3 (human)) was 103% and the residual activity (TEK (human)) was 92.6%. It also gave a residual activity (TNK2 (human)) of 101%, a residual activity (TSSK1B (human)) of 97.6% and a residual activity (TSSK2 (human)) of 110%. For the same compound, the residual activity [1] was 105% and the residual activity (VRK1 (human)) was 93.1%.
Compound N#Cc1c[nH]c2c[nH]/c(=N\Cc3cccnc3)cc2/c1=N\c1ccc(F)c(Cl)c1 has a residual activity (ACVR1 (human)) of 95.6%, a residual activity (BLK (human)) of 99.9% and a residual activity (CAMK1D (human)) of 97.8%. The residual activity (CDK1 CCNB1 (human)) was 84.6%, the residual activity (CDK6 CCND3 (human)) was 88.8% and the residual activity (CHUK (human)) was 96.3%. For the same compound, the residual activity (ERBB4 (human)) was 72.6%, the residual activity (FGFR4 (human)) was 92.6% and the residual activity (FLT3 (human)) was 83.6%. For the same compound, the residual activity (GRK4 (human)) was 98.8%, the residual activity (HIPK1 (human)) was 98.6% and the residual activity (HIPK4 (human)) was 93.1%. For the same compound, the residual activity (IGF1R (human)) was 93.8%, the residual activity (JAK3 JH1 JH2 (human)) was 86.2% and the residual activity (KIT (human)) was 92.9%. It also gave a residual activity (MAP2K2 (human)) of 105%, a residual activity (MAP3K10 (human)) of 101% and a residual activity (MAP3K7 TAB1 (human)) of 89.5%. The residual activity (MAPK14 (human)) was 115%, the residual activity (MAPKAPK3 (human)) was 94% and the residual activity (MST1R (human)) was 89.6%. It also gave a residual activity (MUSK (human)) of 55.6%, a residual activity (MYLK (human)) of 105% and a residual activity (MYLK2 (human)) of 96.2%. The residual activity (NEK1 (human)) was 20.5%, the residual activity (NTRK1 (human)) was 96.2% and the residual activity (PAK2 (human)) was 66.6%. It also gave a residual activity (PAK3 (human)) of 99.2%, a residual activity (PDGFRB (human)) of 101% and a residual activity (PLK3 (human)) of 91.1%. For the same compound, the residual activity (PRKCG (human)) was 111%, the residual activity (RET (human)) was 107% and the residual activity (RPS6KA2 KD1 KD2 (human)) was 87.3%. The residual activity (RPS6KA6 KD1 KD2 (human)) was 104%, the residual activity (TAOK3 (human)) was 99.2% and the residual activity (TEK (human)) was 95.5%. For the same compound, the residual activity (TNK2 (human)) was 89.9%, the residual activity (TSSK1B (human)) was 84.4% and the residual activity (TSSK2 (human)) was 100%. For the same compound, the residual activity [1] was 103% and the residual activity (VRK1 (human)) was 99.2%.
